According to ChEMBL document CHEMBL1130020, “Synthesis and characterization of technetium-99m-labeled tropanes as dopamine transporter-imaging agents” (J Med Chem, 1997):

Target: Sodium-dependent dopamine transporter (Rattus norvegicus, UniProt P23977)
Test: In vitro binding affinity to Dopamine transporter in rat striatal homogenates using [125I]IPT20 as the ligand

Sodium-dependent dopamine transporter, sequence (P23977 whole entry, looked up): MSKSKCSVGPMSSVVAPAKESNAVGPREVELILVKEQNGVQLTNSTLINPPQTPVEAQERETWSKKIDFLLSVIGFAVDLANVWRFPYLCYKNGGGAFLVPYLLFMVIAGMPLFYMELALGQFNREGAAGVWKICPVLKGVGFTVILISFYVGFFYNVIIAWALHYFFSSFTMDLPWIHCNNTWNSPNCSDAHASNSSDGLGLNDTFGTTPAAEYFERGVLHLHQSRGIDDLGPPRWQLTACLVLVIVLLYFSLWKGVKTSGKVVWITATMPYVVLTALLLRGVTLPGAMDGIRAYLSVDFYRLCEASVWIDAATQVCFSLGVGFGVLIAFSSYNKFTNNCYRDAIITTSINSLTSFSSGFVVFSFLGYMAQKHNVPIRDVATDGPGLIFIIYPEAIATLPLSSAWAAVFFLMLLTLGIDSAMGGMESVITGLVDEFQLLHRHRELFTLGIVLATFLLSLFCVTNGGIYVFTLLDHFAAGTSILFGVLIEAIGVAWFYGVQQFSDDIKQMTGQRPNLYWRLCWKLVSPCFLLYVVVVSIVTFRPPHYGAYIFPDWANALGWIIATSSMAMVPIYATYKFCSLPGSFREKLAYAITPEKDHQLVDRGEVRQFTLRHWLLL

CN1C2CCC1[C@@H](CN(CCS)CCNCCS)[C@@H](c1ccc(Cl)cc1)C2 (stereo partly specified)
Ki: 7 nM
